Measured values published in ChEMBL document CHEMBL1201862, “PubChem BioAssay data set” (2004).
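Interpolation was linear, between the two tested concentrations surrounding the appropriate level; five concentrations were tested over 48 hours in 96-well plates. Abbreviation: GI50, concentration required for 50% inhibition of growth.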 The source made the active and inactive calls. Cut-off read from the data, not from the text of the source: active = GI50 up to about 1.1 µM and inactive = higher.

Experiments:
Assay in all cases: NCI-60 cell line screen, 48 h
[1] = tested on: 786-0
[2] = tested on: A549
[3] = tested on: ACHN
[4] = tested on: CAKI-1
[5] = tested on: CCRF-CEM
[6] = tested on: COLO 205
[7] = tested on: DLD-1
[8] = tested on: DMS-114
[9] = tested on: EKVX
[10] = tested on: HCC 2998
[11] = tested on: HCT-116
[12] = tested on: HCT-15
[13] = tested on: HL-60
[14] = tested on: HOP-62
[15] = tested on: HT-29
[16] = tested on: IGROV-1
[17] = tested on: K562
[18] = tested on: KM-20L2
[19] = tested on: KM12
[20] = tested on: LOX IMVI
[21] = tested on: LXFL 529
[22] = tested on: M14
[23] = tested on: M19-MEL
[24] = tested on: MOLT-4
[25] = tested on: Malme-3M
[26] = tested on: NCI-H226
[27] = tested on: NCI-H23
[28] = tested on: NCI-H460
[29] = tested on: NCI-H522
[30] = tested on: OVCAR-3
[31] = tested on: OVCAR-4
[32] = tested on: OVCAR-5
[33] = tested on: OVCAR-8
[34] = tested on: RPMI-8226
[35] = tested on: RXF 393
[36] = tested on: SF-268
[37] = tested on: SF-295
[38] = tested on: SF-539
[39] = tested on: SK-MEL-28
[40] = tested on: SK-MEL-2
[41] = tested on: SK-MEL-5
[42] = tested on: SK-OV-3
[43] = tested on: SN12C
[44] = tested on: SNB-19
[45] = tested on: SNB-75
[46] = tested on: SNB-78
[47] = tested on: SR
[48] = tested on: SW-620
[49] = tested on: U-251
[50] = tested on: UACC-257
[51] = tested on: UACC-62
[52] = tested on: UO-31
[53] = tested on: XF498
[54] = tested on: DMS-273
[55] = tested on: HOP-92
[56] = tested on: TK-10

CC1C(c2ccccc2)=CCON1c1ccccc1 (stereo not drawn)
GI50 [1]: > 100 µM (inactive) | GI50 [2]: > 100 µM (inactive) | GI50 [3]: > 100 µM (inactive) | GI50 [4]: > 100 µM (inactive) | GI50 [5]: > 100 µM (inactive) | GI50 [6]: > 100 µM (inactive) | GI50 [7]: > 100 µM (inactive) | GI50 [8]: > 100 µM (inactive) | GI50 [9]: > 100 µM (inactive) | GI50 [10]: > 100 µM (inactive) | GI50 [11]: > 100 µM (inactive) | GI50 [12]: > 100 µM | GI50 [13]: > 100 µM (inactive) | GI50 [14]: > 100 µM (inactive) | GI50 [15]: > 100 µM (inactive) | GI50 [16]: > 100 µM (inactive) | GI50 [17]: > 100 µM (inactive) | GI50 [18]: > 100 µM (inactive) | GI50 [19]: > 100 µM (inactive) | GI50 [20]: > 100 µM (inactive) | GI50 [21]: > 100 µM (inactive) | GI50 [22]: > 100 µM (inactive) | GI50 [23]: > 100 µM (inactive) | GI50 [24]: > 100 µM (inactive) | GI50 [25]: > 100 µM (inactive) | GI50 [26]: > 100 µM (inactive) | GI50 [27]: > 100 µM (inactive) | GI50 [28]: > 100 µM (inactive) | GI50 [29]: > 100 µM (inactive) | GI50 [30]: > 100 µM (inactive) | GI50 [31]: > 100 µM (inactive) | GI50 [32]: > 100 µM (inactive) | GI50 [33]: > 100 µM (inactive) | GI50 [34]: > 100 µM (inactive) | GI50 [35]: > 100 µM (inactive) | GI50 [36]: > 100 µM (inactive) | GI50 [37]: > 100 µM (inactive) | GI50 [38]: > 100 µM (inactive) | GI50 [39]: > 100 µM (inactive) | GI50 [40]: > 100 µM (inactive) | GI50 [41]: > 100 µM (inactive) | GI50 [42]: > 100 µM (inactive) | GI50 [43]: > 100 µM (inactive) | GI50 [44]: > 100 µM (inactive) | GI50 [45]: > 100 µM (inactive) | GI50 [46]: > 100 µM (inactive) | GI50 [47]: > 100 µM (inactive) | GI50 [48]: > 100 µM (inactive) | GI50 [49]: > 100 µM (inactive) | GI50 [50]: > 100 µM (inactive) | GI50 [51]: > 100 µM (inactive) | GI50 [52]: > 100 µM (inactive) | GI50 [53]: > 100 µM (inactive)

CCOC(=O)C(Cc1cn(S(=O)(=O)c2ccccc2)c2ccccc12)(NC(C)=O)C(=O)OCC
GI50 [1]: 72.8 µM (inactive) | GI50 [2]: 36.2 µM (inactive) | GI50 [3]: 32.3 µM (inactive) | GI50 [4]: 49.1 µM (inactive) | GI50 [5]: 25.1 µM (inactive) | GI50 [6]: 25 µM (inactive) | GI50 [7]: 40.1 µM (inactive) | GI50 [8]: 23.9 µM (inactive) | GI50 [54]: 35 µM (inactive) | GI50 [10]: 34 µM (inactive) | GI50 [11]: 24.7 µM (inactive) | GI50 [12]: 42.5 µM | GI50 [13]: 16.5 µM (inactive) | GI50 [14]: 27.2 µM (inactive) | GI50 [55]: 19.8 µM (inactive) | GI50 [15]: 58.5 µM (inactive) | GI50 [16]: 46.7 µM (inactive) | GI50 [17]: 29 µM (inactive) | GI50 [18]: 46.6 µM (inactive) | GI50 [19]: 29.4 µM (inactive) | GI50 [21]: 27.7 µM (inactive) | GI50 [22]: 32.1 µM (inactive) | GI50 [23]: 40.7 µM (inactive) | GI50 [24]: 19 µM (inactive) | GI50 [25]: 37.9 µM (inactive) | GI50 [26]: 21.3 µM (inactive) | GI50 [27]: 26.3 µM (inactive) | GI50 [28]: 32.7 µM (inactive) | GI50 [29]: 15.3 µM (inactive) | GI50 [30]: 34 µM (inactive) | GI50 [31]: 33.3 µM (inactive) | GI50 [32]: > 100 µM (inactive) | GI50 [33]: 33 µM (inactive) | GI50 [34]: 13.1 µM (inactive) | GI50 [36]: 40 µM (inactive) | GI50 [37]: 29.1 µM (inactive) | GI50 [38]: 30.3 µM (inactive) | GI50 [39]: 42.6 µM (inactive) | GI50 [40]: 30.6 µM (inactive) | GI50 [41]: 15.8 µM (inactive) | GI50 [44]: 34.8 µM (inactive) | GI50 [45]: 8.18 µM (inactive) | GI50 [47]: 15.2 µM (inactive) | GI50 [48]: 54.2 µM (inactive) | GI50 [56]: 65.5 µM (inactive) | GI50 [49]: 40.1 µM (inactive) | GI50 [50]: 24.5 µM (inactive) | GI50 [51]: 27.9 µM (inactive) | GI50 [52]: 17.1 µM (inactive) | GI50 [53]: 29.7 µM (inactive)
